Measured values as given in the NIST ThermoML archive (doi:10.1016/j.jct.2005.10.018).
Numbers after ± are expanded uncertainties.

Settings: 298.15 K; 101.33 kPa; Liquid; Vibrating tube method

mass density [kg/m3]	Compound
853.88 ± 0.3	CC1=CC[C@H]2C[C@@H]1C2(C)C [(S)-2-pinene]
837.31 ± 0.85	C=C(C)[C@H]1CC=C(C)CC1 [(R)-1-methyl-4-(1-methylethenyl)cyclohexene]
785.24 ± 0.16	CCO [ethanol]
866.84 ± 0.3	C=C1CC[C@H]2C[C@@H]1C2(C)C [(1S,5S)-6,6-dimethyl-2-methylenebicyclo[3.1.1]heptane]
